Data as given in patent publication US6756401B2, “Compositions and methods for treating osteoporosis and lowering cholesterol” (Pfizer Inc., priority 2000, dated 2004).

Assays:
[1] = tested on: OVX rats; experiment: Ovariectomized rat model: lumbar vertebrae BMD by dual-energy X-ray absorptiometry; type: in vivo; settings: 4 weeks
Source text: (§1) In women, estrogen deficiency during the menopause results in increased bone turnover leading to bone loss. Ovariectomy in rats produces estrogen deficiency and increased bone turnover leading to trabecular bone loss similar to that observed in post-menopausal women (Kalu, D. N., Bone and Mineral 1991 ;15:175; Frost, H. M., Jee W. S. S., Bone and Mineral 1992;18:227; Wronski, T. J., Yen, C-F, Cells Materials 1991;(suppl. 1):69). The OVX rat is thus an appropriate model to evaluate compounds for the prevention and treatment of post-menopausal osteoporosis. The ability of PPTN to inhibit estrogen deficiency bone loss was assessed in 5-month-old OVX rats, since ovariectomy causes significant bone loss in the lumbar vertebrae, proximal tibia, and distal femoral metaphyses (Ke, H. Z., et al., Endocrin 1995;136:2435; Chen, H. K., et al., J Bone Miner Res 1995;10:1256).
(§2) Five-month-old OVX female rats were treated with PPTN at oral doses of 0.733, 7.33, 73.3, and 733 μg/kg/day, or 17α-ethynyl estradiol (EE) at 30 μg/kg/day (10 rats per subgroup) daily for 4 weeks. The oral treatment began 1 day after surgery. Groups of vehicle-treated sham rats (n=10) and vehicle-treated OVX rats (n=10) served as controls. Calcein at 10 mg/kg was injected s.c. to all rats 12 and 2 days before necropsy as a fluorochrome bone marker to measure bone dynamic histomorphometric parameters. The effects of PPTN on the following end points were determined: (a) serum osteocalcin, a biochemical marker of bone turnover, (b) bone mineral density of lumbar vertebrae and distal femoral metaphyses, (c) bone histomorphometry of fifth lumbar vertebral body and proximal tibial metaphyses.
The first to the sixth lumbar vertebrae from each rat were removed during necropsy. These were then scanned ex vivo using dual-energy X-ray absorptiometry. The scan images were analyzed, and bone area, bone mineral content (BMC), and bone mineral density (BMD) of whole lumbar vertebrae (WLV), and LV1 through LV6 were determined. […] The changes in BMC were similar to those observed in BMD. […]

[2] = tested on: OVX rats; experiment: Ovariectomized rat model: femur BMD by dual-energy X-ray absorptiometry; type: in vivo; settings: 4 weeks
Source text: as §1, §2
Using dual-energy X-ray absorptiometry, the right femur of each rat was scanned ex vivo. Bone mineral density (BMD) of the distal femoral metaphyses (second 0.5 cm from the distal end of femur) and the proximal femur (the first 0.5 cm from the proximal end of femur, which contains the femoral head, neck, and greater trochanter) was determined.

[3] = tested on: OVX rats; experiment: Ovariectomized rat model: bone histomorphometry of fifth lumbar vertebral body; type: in vivo; settings: 4 weeks
Source text: as §1, §2
In order to understand the cellular mechanism of bone-protective effects of PPTN at the tissue level, bone histomorphometric methods were used to determine the effects of PPTN on cancellous bone of the fifth lumbar vertebral body in OVX rats. Ovariectomy caused significant decreases in trabecular bone volume (trabecular bone area divided by marrow space area, expressed as percent) and trabecular number, and a significant increase in trabecular separation of the fifth lumbar vertebral body.

[4] = tested on: OVX rats; experiment: Ovariectomized rat model: histomorphometry of proximal tibial metaphyses; type: in vivo; settings: 4 weeks
Source text: as §1, §2
In order to determine the effect of PPTN on long bone metaphyses, histomorphometric analyses were performed on the proximal tibiae.

[5] = tested on: OVX rats; experiment: Ovariectomized rat model: serum osteocalcin by radioimmunoassay; type: in vivo; settings: daily for 4 weeks
Source text: as §1
Five-month-old OVX female rats were treated with PPTN at oral doses of 0.733, 7.33, 73.3, and 733 μg/kg/day, or 17α-ethynyl estradiol (EE) at 30 μg/kg/day (10 rats per subgroup) daily for 4 weeks. […] The effects of PPTN on the following end points were determined: (a) serum osteocalcin, a biochemical marker of bone turnover, (b) bone mineral density of lumbar vertebrae and distal femoral metaphyses, (c) bone histomorphometry of fifth lumbar vertebral body and proximal tibial metaphyses. […]

[6] = tested on: MDA-MB-231 cells; experiment: Inhibition of in vitro human breast tumor cell growth, ER-negative cells; type: cell-based; settings: MDA-MB-231 (ER-negative), 6 days incubation, direct cell counts
Method: The in vitro antiproliferative effects of (−)-cis-6-phenyl-5-[4-(2-pyrrolidin-1-yl-ethoxy)-phenyl]-5,6,7,8-tetrahydro-naphthalene-2-ol (PPTN) were tested using two types of human breast cancer cell lines: first, MCF-7 cells, which contain ER as well as progesterone receptors (PgR), and second, MDA-MB-231 cells, which lack ER and PgR, and enable the determination of an effect that is independent of the ER mechanism. The effect of PPTN on the growth of these different cell lines was determined by incubation of the cells with various compound concentrations for 6 days.
The antiproliferative effects were then determined by direct cell counts. PPTN inhibited the growth of the ER-positive cell line MCF-7.

[7] = PPTN at 7.33, 73.3, or 733 μg/kg/day oral
[8] = PPTN at doses ≧7.33 μg/kg/day oral

## C#C[C@]1(O)CC[C@H]2[C@@H]3CCc4cc(O)ccc4[C@H]3CC[C@@]21C [EE, 17α-ethynyl estradiol, reference compound]
[1]; EE 30 μg/kg/day oral
  decrease in lumbar vertebral BMD after ovariectomy: completely prevented the decrease
[2]; EE 30 μg/kg/day oral
  decrease in BMD of distal femoral metaphyses after ovariectomy: prevented the decrease
  proximal femoral BMD: had no effect
[3]; EE 30 μg/kg/day oral
  bone turnover rate, lumbar vertebral body: did not differ from sham controls
  ovariectomy-induced changes in trabecular bone volume, trabecular number and trabecular separation of fifth lumbar vertebral body: completely prevented
  ovariectomy-induced increase in bone formation rate (BFR): inhibited this increase
  percent eroded surface (index of osteoclastic bone resorption) compared with sham controls: significantly decreased
  trabecular number of fifth lumbar vertebral body compared with sham controls: significantly increased
[4]; EE 30 μg/kg/day oral
  bone turnover rate in proximal tibial trabecular bone: did not differ from sham controls
  osteoclast number per millimeter of bone surface compared with both sham and OVX controls: significantly decreased
  percent osteoclast surface compared with both sham and OVX controls: significantly decreased
[5]; EE 30 μg/kg/day oral
  increase in serum osteocalcin concentration after ovariectomy: completely prevented

## Oc1ccc2c(c1)CC[C@H](c1ccccc1)[C@@H]2c1ccc(OCCN2CCCC2)cc1 [PPTN, (−)-cis-6-phenyl-5-[4-(2-pyrrolidin-1-yl-ethoxy)-phenyl]-5,6,7,8-tetrahydro-naphthalene-2-ol]
[1]; PPTN 73.3 μg/kg/day oral
  lumbar vertebral BMD compared with both sham and OVX controls: increased significantly
[1]; PPTN at all dose levels (0.733 to 733 μg/kg/day oral)
  decrease in lumbar vertebral BMD after ovariectomy: completely prevented the decrease
[2]; PPTN at 0.733 or 7.33 μg/kg/day oral
  BMD of distal femoral metaphyses and proximal femur: did not differ from OVX controls
[2]; PPTN at both 73.3 and 733 μg/kg/day oral
  decreases in BMD of distal femoral metaphyses and proximal femur: completely prevented the decreases
[3]; OVX rats, oral, lumbar vertebrae
  ED50 in preserving lumbar vertebral cancellous bone mass and structure: less than 0.733 μg/kg/day
[3]; PPTN at 0.733 μg/kg/day oral
  bone loss in lumbar vertebrae: completely prevented bone loss
[3]; PPTN at 73.3 or 733 μg/kg/day oral
  trabecular number of fifth lumbar vertebral body compared with sham controls: significantly increased
[3]; PPTN at all dose levels, oral
  bone turnover rate, lumbar vertebral body: did not differ from sham controls
  ovariectomy-induced increase in bone formation rate (BFR): inhibited this increase
  percent eroded surface (index of osteoclastic bone resorption) compared with sham controls: significantly decreased
[3]; all doses of PPTN (0.733 to 733 μg/kg/day oral)
  ovariectomy-induced changes in trabecular bone volume, trabecular number and trabecular separation of fifth lumbar vertebral body: completely prevented
[4]; PPTN at 0.733 μg/kg/day oral
  percent osteoclast surface compared with OVX controls: decreased significantly
  prevention of bone loss in proximal tibiae: failed to do so
  proximal tibial trabecular bone volume: no significant effect
[4]; [7]
  osteoclast number per millimeter of bone surface compared with both sham and OVX controls: significantly decreased
  percent osteoclast surface compared with both sham and OVX controls: significantly decreased
[4]; PPTN at doses of 7.33 to 733 μg/kg/day oral
  bone turnover rate in proximal tibial trabecular bone: did not differ from sham controls
[4]; [8]
  proximal tibial trabecular bone volume compared with OVX controls: significantly greater
[6]
  inhibition of cell proliferation: did not inhibit cell proliferation
[5]; [8]
  increase in serum osteocalcin concentration after ovariectomy: completely prevented
